Data reported in patent US12678477B2, “Antiviral peptoid compositions” (priority 2019, dated 2026).
“And” between values parts separate entries of the source, which are not always exact repeats. Equal values may be shown once.

Key:
HSV = settings: acyclovir treatment, given orally; cited from earlier work
[1] = tested on: SARS-CoV-2 Isolate USA-WA1/2020; test: SARS-CoV-2 plaque assay in Vero E6 cells (virus pre-incubated with peptoid); assay type: cell-based; settings: for % control: plaque count relative to control; for Count (plaques): virus-peptoid incubated two hours at 37° C., Vero E6

Compound	reduction of transmission (HSV) [%]	% control ([1]; 5 μg/ml)	Count (plaques) ([1]; 5 μg/ml)	% control ([1]; 10 μg/ml)	Count (plaques) ([1]; 10 μg/ml)	% control ([1]; 20 μg/ml)	Count (plaques) ([1]; 20 μg/ml)	% control ([1]; 40 μg/ml) [%]	Count (plaques) ([1]; 40 μg/ml)
Nc1nc2c(ncn2COCCO)c(=O)[nH]1 [acyclovir]	50								
H-((NLys-Nspe(p-Br)-Nspe(p-Br))2—NH2 [MXB-004]		86.36% and 102.27%	38 and 45	136.36% and 134.09%	60 and 59	54.55% and 56.82%	24 and 25	15.91	7
H-(NLys-Nspe-Nspe)4-NH2 [MXB-001]		118.18% and 113.64%	52 and 50	100% and 118.18%	44 and 52	125%	55	104.55	46
